# Data as given in ChEMBL document CHEMBL5375999, “Discovery of a Dual Tubulin and Neuropilin-1 (NRP1) Inhibitor with Potent In Vivo Anti-Tumor Activity via Pharmacophore-based Docking Screening, Structure Optimization, and Biological Evaluation” (J Med Chem, 2023).
# Active and inactive are the calls of the source. The calls are words filed in the database; no cut-off is given here.
# Legend:
# [1] = target: Tubulin (Homo sapiens) (UniProt P68371+Q9H4B7+P0DPH7+P68366+Q13509+Q71U36+P04350+Q3ZCM7+P07437+P68363+Q9BQE3+Q6PEY2+Q13885+Q9BVA1+Q9BUF5); experiment: Inhibition of tubulin polymerization (unknown origin) at 12 uM by spectrophotometric analysis relative to control; format: protein-complex assay
# [2] = target: Neuropilin-1 (Homo sapiens) (UniProt O14786); experiment: Inhibition of [125I]-VEGF-A165 binding to NRP1 (unknown origin) transfected in HUVECs incubated for 2 hrs by plate reader analysis; details: HUVEC
# Target sequence in this assay (O14786 whole entry, looked up): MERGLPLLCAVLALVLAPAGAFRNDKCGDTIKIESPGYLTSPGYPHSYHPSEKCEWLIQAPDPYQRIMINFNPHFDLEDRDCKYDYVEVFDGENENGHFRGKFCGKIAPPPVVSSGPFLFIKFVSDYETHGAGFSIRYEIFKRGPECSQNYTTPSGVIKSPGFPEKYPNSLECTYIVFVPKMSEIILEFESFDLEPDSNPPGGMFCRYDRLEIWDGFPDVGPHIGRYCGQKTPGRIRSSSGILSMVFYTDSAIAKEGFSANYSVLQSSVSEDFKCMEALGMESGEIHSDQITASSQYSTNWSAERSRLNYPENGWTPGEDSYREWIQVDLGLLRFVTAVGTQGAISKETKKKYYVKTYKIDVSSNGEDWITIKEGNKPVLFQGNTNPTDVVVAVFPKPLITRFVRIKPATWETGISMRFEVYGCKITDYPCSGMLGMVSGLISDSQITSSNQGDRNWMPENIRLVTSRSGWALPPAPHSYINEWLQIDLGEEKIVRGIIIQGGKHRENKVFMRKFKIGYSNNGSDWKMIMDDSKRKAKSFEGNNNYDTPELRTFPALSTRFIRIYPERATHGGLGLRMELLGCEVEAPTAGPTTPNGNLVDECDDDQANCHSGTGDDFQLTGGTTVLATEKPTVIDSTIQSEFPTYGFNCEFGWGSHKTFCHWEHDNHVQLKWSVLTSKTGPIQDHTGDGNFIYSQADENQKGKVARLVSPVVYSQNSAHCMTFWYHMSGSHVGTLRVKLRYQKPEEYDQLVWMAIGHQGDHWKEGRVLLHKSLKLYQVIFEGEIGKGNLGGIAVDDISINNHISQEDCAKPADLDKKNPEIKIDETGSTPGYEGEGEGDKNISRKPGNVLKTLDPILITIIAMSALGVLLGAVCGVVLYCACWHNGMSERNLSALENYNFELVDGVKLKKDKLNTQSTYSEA
# [3] = target: Neuropilin-1 (Homo sapiens) (UniProt O14786); experiment: Inhibition of [125I]-VEGF-A165 binding to NRP1 (unknown origin) transfected in HUVECs at 12 uM incubated for 2 hrs by plate reader analysis relative to control; format: cell-based; details: HUVEC
# Target sequence in this assay (O14786 whole entry): as the sequence (O14786 whole entry, looked up) above
# [4] = target: Tubulin; experiment: Inhibition of tubulin polymerization (unknown origin) by spectrophotometric analysis; format: protein-complex assay, Homo sapiens
# [5] = tested on: PC-3; experiment: Cytotoxicity against human PC-3 cells assessed as inhibition of cell viability incubated for 48 hrs by MTT assay; format: functional, cell-based; details: PC-3, 48 h
# [6] = Cytotoxicity against human PrEC cells assessed as inhibition of cell viability incubated for 48 hrs by MTT assay; format: toxicity, cell-based
smiles,measurement,setting,value
COc1ccc2c(c1)OC(c1cc(OC)c(OC)c(OC)c1)CC2=O (stereo not drawn),inhibition,[1],52%
COc1cc(C(=O)/C=C/c2c[nH]c3ccc(Br)cc23)cc(OC)c1OC,inhibition,[1],63%
COC(=O)[C@H](CCCNC(=N)N)NC(=O)CCCCCCC(=O)Nc1cc(/C=C\c2cc(OC)c(OC)c(OC)c2)ccc1OC,inhibition,[2],inactive
COc1cc([C@@H]2CC(=O)c3cnc(N4CCN(CCO)CC4)nc3C2)cc(OC)c1OC,inhibition,[1],48%
COc1cc(C(O)c2cc3c(cc2CO)OCO3)cc(OC)c1OC (stereo not drawn),inhibition,[3],47%
same,inhibition,[1],64%
COC(=O)[C@H](CCCNC(=N)N)NC(=O)/C=C/C(=O)Nc1cc(/C=C\c2cc(OC)c(OC)c(OC)c2)ccc1OC,inhibition,[2],inactive
same,IC50,[4],4.14 µM
COc1cc(O)c(/C=C/C(=O)c2cc(OC)c(OC)c(OC)c2)c(OC)c1,inhibition,[1],71%
Cc1ccc(S(=O)(=O)N[C@@H](CCCNC(=N)N)C(=O)O)cc1,inhibition,[3],82%
COc1ccc(/C=C\c2cc(OC)c(OC)c(OC)c2)cc1O [COMBRETASTATIN A4],inhibition,[2],inactive
same,IC50,[5],0.06 µM
same,IC50 at 48 h,[6],0.08 µM
COc1ccc(/C=C\c2cc(OC)c(OC)c(OC)c2)cc1NC(=O)CCCC(=O)N[C@@H](CCCNC(=N)N)C(=O)O,IC50,[4],5.57 µM
COc1ccc(/C=C\c2cc(OC)c(OC)c(OC)c2)cc1NC(=O)CCCCC(=O)N[C@@H](CCCNC(=N)N)C(=O)O,IC50,[4],7.15 µM
N=C(N)NCCC[C@H](NC(=O)c1sccc1NS(=O)(=O)c1cccc2nsnc12)C(=O)O,inhibition,[3],87%
COc1cc(-c2cc(C(F)(F)F)n3ncc(C(=O)NCC(C)C)c3n2)cc(OC)c1OC,inhibition,[1],21%
COc1cc(C2OC2C(=O)c2ccccc2)cc(OC)c1OC (stereo not drawn),inhibition,[1],15%
COc1cc(C(=O)/C=C/Nc2cccc(C)c2)cc(OC)c1OC,inhibition,[1],45%
N=C(N)NCCC[C@H](NC(=O)c1ccccc1)C(=O)O,inhibition,[3],79%
COC(=O)[C@H](CCCNC(=N)N)NC(=O)CCCC(=O)Nc1cc(/C=C\c2cc(OC)c(OC)c(OC)c2)ccc1OC,inhibition,[2],inactive
same,IC50,[4],7.96 µM
COc1ccc(/C=C\c2cc(OC)c(OC)c(OC)c2)cc1NC(=O)/C=C/C(=O)N[C@@H](CCCNC(=N)N)C(=O)O,IC50,[4],1.53 µM
COc1cc(-c2cc(-n3c(S)nc4ccccc4c3=O)[nH]n2)cc(OC)c1OC,inhibition,[1],28%
COc1cc2c(cc1OC)C(c1cc(OC)c(OC)c(OC)c1)OCC2 (stereo not drawn),inhibition,[1],69%
COC(=O)[C@H](CCCNC(=N)N)NC(=O)CCCCC(=O)Nc1cc(/C=C\c2cc(OC)c(OC)c(OC)c2)ccc1OC,inhibition,[2],inactive
same,IC50,[4],9.34 µM
N=C(N)NCC(C[C@H](NCc1ccccc1)C(=O)O)[N+](=O)[O-] (stereo partly drawn),inhibition,[3],60%
